Consider one compound from ChEMBL document CHEMBL3526052 (Drug Metab Dispos, 2013).

Data set [1] concerns the target T1, Equilibrative nucleoside transporter 1 (Homo sapiens, UniProt Q99808).
T1 sequence (Q99808 whole entry): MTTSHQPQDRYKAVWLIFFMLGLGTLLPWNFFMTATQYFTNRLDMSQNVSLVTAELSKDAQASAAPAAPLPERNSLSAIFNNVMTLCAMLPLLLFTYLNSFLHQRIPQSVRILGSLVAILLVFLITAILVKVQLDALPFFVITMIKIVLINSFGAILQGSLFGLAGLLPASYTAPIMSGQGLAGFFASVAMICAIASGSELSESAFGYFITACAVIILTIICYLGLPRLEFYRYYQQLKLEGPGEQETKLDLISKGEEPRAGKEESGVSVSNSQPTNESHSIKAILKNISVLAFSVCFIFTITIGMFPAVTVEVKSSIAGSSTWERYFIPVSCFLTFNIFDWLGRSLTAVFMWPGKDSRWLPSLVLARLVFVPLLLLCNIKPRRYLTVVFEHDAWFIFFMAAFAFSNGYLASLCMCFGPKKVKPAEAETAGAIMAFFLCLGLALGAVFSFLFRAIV
As to the kind of experiment: Drug transport in Xenopus laevis oocytes assessed as recombinant human ENT1-mediated uptake up to 1 mM measured per 2 mins by Michaelis-Menten equation analysis. The class given is ADME, cell-based.

A short description of data set [2]: Elimination half life in CD-1 mouse at 0.1 mg/kg, iv administered as bolus dose in absence of ENT1 inhibitor NBMPR-P. The class given is ADME, organism-based. On the set-up: dose 0.1 mg/kg, route intravenous. As to conditions: in vivo, read-out: beta t1/2 (converted).
Data set [3] is described as follows: Cmax in CD-1 mouse brain at 0.1 mg/kg, iv administered as bolus dose in presence of ENT1 inhibitor NBMPR-P. The data set is classed as ADME, organism-based. Further details: dose 0.1 mg/kg, route intravenous.
The target in data set [4] is T2, Sodium/nucleoside cotransporter 2 (Homo sapiens, UniProt O43868).
T2 sequence (O43868 whole entry): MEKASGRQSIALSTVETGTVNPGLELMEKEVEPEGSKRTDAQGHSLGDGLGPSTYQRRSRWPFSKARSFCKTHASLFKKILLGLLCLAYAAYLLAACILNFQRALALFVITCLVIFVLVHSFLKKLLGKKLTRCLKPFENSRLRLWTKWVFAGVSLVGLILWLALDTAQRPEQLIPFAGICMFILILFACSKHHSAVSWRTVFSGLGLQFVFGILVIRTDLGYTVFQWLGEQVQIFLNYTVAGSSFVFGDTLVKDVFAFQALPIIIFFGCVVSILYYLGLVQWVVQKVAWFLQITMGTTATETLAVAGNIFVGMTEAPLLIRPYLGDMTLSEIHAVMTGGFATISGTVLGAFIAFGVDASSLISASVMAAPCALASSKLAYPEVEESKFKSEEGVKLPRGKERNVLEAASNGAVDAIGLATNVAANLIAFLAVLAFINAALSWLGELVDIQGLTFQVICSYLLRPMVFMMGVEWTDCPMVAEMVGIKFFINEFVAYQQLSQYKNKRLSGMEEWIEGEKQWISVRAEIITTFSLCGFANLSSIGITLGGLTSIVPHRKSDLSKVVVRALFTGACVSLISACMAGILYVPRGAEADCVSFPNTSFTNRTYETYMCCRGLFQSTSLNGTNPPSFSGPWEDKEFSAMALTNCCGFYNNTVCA
Put plainly: Binding affinity to recombinant human CNT2 expressed in Saccharomyces cerevisiae assessed as inhibition of [3H]-uridine transport after 15 mins by scintillation counting analysis. The class given is ADME.

In another data set the test system is Brain. As to the kind of experiment: AUC (0 to 4 hrs) in CD-1 mouse brain at 0.1 mg/kg, iv administered as bolus dose in absence of ENT1 inhibitor NBMPR-P. The class given is ADME, organism-based. Further details: time < 4 hr, dose 0.1 mg/kg, route intravenous. Conditions: in vivo.
Data set [5] has as its target T3, Solute carrier family 28 member 3 (Homo sapiens, UniProt Q9HAS3).
T3 sequence (Q9HAS3 whole entry): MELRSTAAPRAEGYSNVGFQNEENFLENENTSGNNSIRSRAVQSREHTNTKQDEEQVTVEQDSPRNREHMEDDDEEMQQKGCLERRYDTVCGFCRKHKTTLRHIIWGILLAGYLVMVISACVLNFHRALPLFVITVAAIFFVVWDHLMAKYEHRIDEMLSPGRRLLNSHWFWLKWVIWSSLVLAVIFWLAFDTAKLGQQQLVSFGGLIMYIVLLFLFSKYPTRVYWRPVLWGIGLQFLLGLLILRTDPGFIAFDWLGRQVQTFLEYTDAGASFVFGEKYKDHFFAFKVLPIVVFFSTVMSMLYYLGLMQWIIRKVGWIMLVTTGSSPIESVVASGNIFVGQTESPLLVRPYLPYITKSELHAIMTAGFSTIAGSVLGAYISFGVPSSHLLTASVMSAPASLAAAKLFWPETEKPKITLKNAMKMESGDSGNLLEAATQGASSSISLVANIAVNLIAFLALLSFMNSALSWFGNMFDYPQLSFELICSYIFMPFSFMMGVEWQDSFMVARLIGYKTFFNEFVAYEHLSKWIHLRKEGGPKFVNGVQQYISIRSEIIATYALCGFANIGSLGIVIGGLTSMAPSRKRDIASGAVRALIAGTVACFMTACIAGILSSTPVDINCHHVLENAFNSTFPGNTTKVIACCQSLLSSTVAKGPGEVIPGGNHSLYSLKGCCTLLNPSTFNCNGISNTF
As to the kind of experiment: Binding affinity to recombinant human CNT3 expressed in Saccharomyces cerevisiae assessed as inhibition of [3H]-uridine transport after 5 mins by scintillation counting analysis. The class given is ADME.

SMILES strings stand for the structures.

A word on the Cmax: it is the maximum level reached in the sampled fluid or tissue. By IC50 is commonly meant the midpoint of a concentration-inhibition curve.

Take `OC[C@H]1O[C@@H](n2cnc3c(N[C@@H]4CCOC4)ncnc32)[C@H](O)[C@@H]1O` [TECADENOSON]: the Vmax in data set [1] is recorded as 46.7 pmol. In data set [2], the half-life is 42 min. Further, the peak concentration (Cmax) in data set [3] was determined as 4 ng/g. In addition, the IC50 turned out to be 239 µM in data set [4] and 200 µM in data set [5]. The results for the Ki in data set [4] (read-out: Ki(app)) and in data set [5] (read-out: Ki(app)) were 231 µM and 126 µM, respectively. Besides, the AUC in the data set with Brain worked out at 22 ng·h/g.
